Measurements published in ChEMBL document CHEMBL5356965, “Discovery and biological evaluation of novel dual PTP1B and ACP1 inhibitors for the treatment of insulin resistance” (Bioorg Med Chem, 2024).

Experiments:
[1] = biological target: T1, Tyrosine-protein phosphatase non-receptor type 2 (Homo sapiens, UniProt P17706)
T1 sequence (P17706 whole entry): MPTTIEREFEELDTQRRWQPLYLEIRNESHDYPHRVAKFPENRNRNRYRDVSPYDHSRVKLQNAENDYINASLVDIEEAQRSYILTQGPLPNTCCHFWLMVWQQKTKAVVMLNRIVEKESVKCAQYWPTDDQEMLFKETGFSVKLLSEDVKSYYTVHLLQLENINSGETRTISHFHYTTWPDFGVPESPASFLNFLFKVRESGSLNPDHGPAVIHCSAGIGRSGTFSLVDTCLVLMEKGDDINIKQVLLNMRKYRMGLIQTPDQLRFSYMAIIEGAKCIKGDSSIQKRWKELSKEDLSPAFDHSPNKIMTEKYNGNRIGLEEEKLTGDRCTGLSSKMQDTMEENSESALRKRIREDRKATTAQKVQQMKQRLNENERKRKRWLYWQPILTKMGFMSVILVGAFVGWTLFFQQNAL
Description: Inhibition of recombinant human TCPTP

[2] = biological target: T2, Low molecular weight phosphotyrosine protein phosphatase (Homo sapiens, UniProt P24666); experiment: Inhibition of recombinant human ACP1 using pNPP as substrate preincubated with compound for 10 mins followed by substrate addition and measured by absorbance based assay
T2 sequence (P24666 whole entry): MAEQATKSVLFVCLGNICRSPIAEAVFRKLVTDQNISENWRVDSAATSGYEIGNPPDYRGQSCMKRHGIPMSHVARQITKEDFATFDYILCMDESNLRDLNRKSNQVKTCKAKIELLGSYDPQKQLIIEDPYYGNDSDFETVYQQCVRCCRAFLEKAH

[3] = biological target: T3, Receptor-type tyrosine-protein phosphatase C (Homo sapiens, UniProt P08575)
T3 sequence (P08575 whole entry): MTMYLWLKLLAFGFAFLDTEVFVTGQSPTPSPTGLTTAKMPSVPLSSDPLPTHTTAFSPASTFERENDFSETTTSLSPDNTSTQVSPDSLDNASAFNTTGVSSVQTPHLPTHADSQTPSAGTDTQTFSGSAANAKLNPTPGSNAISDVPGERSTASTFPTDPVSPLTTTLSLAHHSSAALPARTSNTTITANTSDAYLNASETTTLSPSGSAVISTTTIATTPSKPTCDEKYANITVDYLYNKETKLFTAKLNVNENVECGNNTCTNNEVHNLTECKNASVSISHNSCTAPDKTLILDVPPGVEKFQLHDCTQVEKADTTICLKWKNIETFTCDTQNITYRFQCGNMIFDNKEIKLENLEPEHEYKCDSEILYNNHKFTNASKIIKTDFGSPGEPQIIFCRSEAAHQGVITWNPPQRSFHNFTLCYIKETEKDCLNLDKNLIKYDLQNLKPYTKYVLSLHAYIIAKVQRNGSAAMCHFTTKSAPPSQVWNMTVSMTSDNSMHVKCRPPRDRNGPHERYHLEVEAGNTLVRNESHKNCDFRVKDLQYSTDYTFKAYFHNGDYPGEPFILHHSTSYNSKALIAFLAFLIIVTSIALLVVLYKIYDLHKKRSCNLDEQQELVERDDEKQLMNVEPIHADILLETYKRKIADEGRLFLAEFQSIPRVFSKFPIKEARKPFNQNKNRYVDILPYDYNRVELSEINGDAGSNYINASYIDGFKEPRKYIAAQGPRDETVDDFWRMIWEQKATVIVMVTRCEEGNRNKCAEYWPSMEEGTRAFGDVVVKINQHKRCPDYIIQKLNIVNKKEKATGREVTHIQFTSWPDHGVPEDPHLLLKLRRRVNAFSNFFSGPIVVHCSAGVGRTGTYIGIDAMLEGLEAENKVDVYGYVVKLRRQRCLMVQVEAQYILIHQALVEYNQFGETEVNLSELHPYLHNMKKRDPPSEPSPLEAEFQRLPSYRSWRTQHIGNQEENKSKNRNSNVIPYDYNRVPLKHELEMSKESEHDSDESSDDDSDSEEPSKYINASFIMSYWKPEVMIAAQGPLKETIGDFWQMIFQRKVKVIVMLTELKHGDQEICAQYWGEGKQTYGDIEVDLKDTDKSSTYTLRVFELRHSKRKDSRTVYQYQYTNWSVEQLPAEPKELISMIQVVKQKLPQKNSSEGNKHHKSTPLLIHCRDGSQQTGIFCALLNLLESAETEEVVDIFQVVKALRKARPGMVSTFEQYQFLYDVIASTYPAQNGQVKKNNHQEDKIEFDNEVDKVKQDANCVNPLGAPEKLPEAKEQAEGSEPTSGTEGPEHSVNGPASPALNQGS
Description: Inhibition of recombinant human CD45

[4] = biological target: T4, Tyrosine-protein phosphatase non-receptor type 1 (Homo sapiens, UniProt P18031); experiment: Inhibition of recombinant human PTP1B using pNPP as substrate preincubated with compound for 10 mins followed by substrate addition and measured by absorbance based assay
T4 sequence (P18031 whole entry): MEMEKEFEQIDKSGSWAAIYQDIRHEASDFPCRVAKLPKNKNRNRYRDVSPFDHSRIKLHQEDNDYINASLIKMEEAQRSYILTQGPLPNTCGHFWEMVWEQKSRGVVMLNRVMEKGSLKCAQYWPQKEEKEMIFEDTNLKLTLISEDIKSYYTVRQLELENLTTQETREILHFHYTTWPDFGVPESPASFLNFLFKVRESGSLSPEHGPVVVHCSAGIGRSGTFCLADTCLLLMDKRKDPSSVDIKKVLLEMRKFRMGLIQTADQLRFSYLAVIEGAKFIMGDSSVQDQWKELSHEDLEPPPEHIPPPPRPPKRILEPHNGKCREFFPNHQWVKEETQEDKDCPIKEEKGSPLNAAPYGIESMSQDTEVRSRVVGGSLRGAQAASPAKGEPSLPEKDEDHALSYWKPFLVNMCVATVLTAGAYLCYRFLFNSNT

| Compound | IC50 [1] [µM] | IC50 [2] [µM] | IC50 [3] [µM] | IC50 [4] [µM] |
| --- | --- | --- | --- | --- |
| COc1cc(/C=C2/NC(=O)N(Cc3ccccc3)C2=O)cc(Cl)c1OCc1cccc(C(=O)O)c1 | 12.7 | 5.2 | > 40 | 8.2 |
| COc1cc(/C=C2/NC(=O)N(Cc3ccc(C)cc3)C2=O)ccc1OCc1cccc(C(=O)O)c1 | 8.3 | – | > 40 | – |
